Read-outs that look alike come from different tables or passages of the source.
Columns and labels:
[1] = test system: MCF-7 MX cells (express BCRP, not Pgp1); assay: Reversal of drug resistance in non-Pgp1 MDR cells expressing BCRP; format: cell-based, human
Source text: Dr. Efstathios Gonos (Institute of Biological Research & Biotechnology, Athens, Greece) provided the doxorubicin resistant U-2OS R2 (referred in the text below as U-2OSDR), KHOS R2 cell lines. Dr. Stephen. Howell (The University of California Medical Center, San Diego) provided the cisplatin-resistant ovarian cancer IGROV1cp and 2008 cp70 cell lines. Dr. Erasmus Schneider (Wadsworth Center, Albany) provided the mitoxantrane resistant breast cancer MCF-7/MX cell line. Dr. Katia Scotlandi (Institute Orthopedics Rizzoli, Italy) provided ET-743 resistant TC-ET 6 nM and TC-ET 12 nM cell lines.

[2] = test system: OVCAR8 and OVCAR8TR cells; assay: Cytotoxicity of NSC23925 alone (MTT assay), OVCAR8/OVCAR8TR; format: cell-based, human
Description: Cells were treated with the NSC23925 in RPMI1640 complete media at the indicated concentrations. The relative sensitivity of each line to NSC23925 was determined by MTT assay. A: Nonspecific toxicity of NSC23925 on SKOV3 vs SKOV-3TR. B: Nonspecific toxicity of NSC23925 on OVCAR8 vs OVCAR8TR. Drug cytotoxicity was assessed in vitro using the MTT assay. SKOV-3 and SKOV-3TR cells were used herein. Briefly, 2×10^3 cells per well were plated in 96-well plates in culture medium (RPMI 1640 supplemented with 10% fetal bovine serum and penicillin/streptomycin) containing increasing concentrations of drug. After 7 days of culture, 10 μl MTT (5 mg/ml in PBS, obtained from Sigma) were added to each well and the plates were incubated for 4 h. The resulting formazan product was dissolved with acid-isopropanol and the absorbance at a wavelength of 490 nm (A490) was read on a SPECTRAmax® Microplate Spectrophotometer (Molecular Devices, Sunnyvale, Calif.). The absorbance values were normalized by assigning the value of the control line in the medium without drug to 1.0 and the value of the no cell control to 0. Experiments were performed in triplicate.

[3] = biological target: T1, Pgp1 efflux in SKOV-3TR and OVCAR8TR cells (Homo sapiens, UniProt P08183); assay: Calcein AM drug efflux assay (VYBRANT kit) in resistant cells; format: cell-based
T1 construct: endogenous in cells; host or cells: SKOV-3TR and OVCAR8TR (paclitaxel-selected resistant lines, not transfected)
Description: Calcein-AM assay was optimized and performed using the VYBRANT™ multi-drug resistance assay kit (Invitrogen/Molecular Probes) and SKOV-3TR cells. Cells were seeded at 50,000 cells/well (100 μl of culture medium) in a 96-well plate and incubated for 24 h. […] The cell fluorescence images were acquired by a fluorescence microscope (A, C) and quantities of fluorescence were measured in a SPECTRAmax Microplate Spectrofluorometer (B, D).
The VYBRANT™ multi-drug resistance assay kit (Invitrogen/Molecular Probes) was used to measure drug efflux properties of different resistant cell lines. This assay utilizes the fluorogenic dye calcein acetoxymethyl ester (calcein AM) as a substrate for efflux activity of Pgp1 or other membrane pump ABC proteins. Calcein AM is taken up by cells and hydrolyzed by cytoplasmic esterases to fluorescent calcein. Calcein AM is well retained in the cytosol. However, multi-drug resistant cells expressing high levels of Pgp1 rapidly extrude non-fluorescent calcein AM from the plasma membrane, reducing accumulation of fluorescent calcein in the cytosol. Drug sensitive and resistant cells (3×10^5) were cultured in 96-well plate for 24 hours and then incubated in 0.25 μM calcein AM in 150 μl total volume. After 30 minutes, the cells in plate were washed and centrifuged twice with 200 μl cold RPMI1640 culture medium, and cell fluorescence was measured at a […] on a SPECTRAMAX™ Microplate Spectrofluorometer (Molecular Devices).

[4] = test system: Pgp1 substrate retention in SKOV-3TR cells; assay: Fluorescence microscopy of Pgp substrate accumulation; format: cell-based, human
Description: FIG. 8 depicts the increase in Pgp1 substrate accumulation in SKOV-3TR by NSC23925. Images of SKOV-3TR cells incubated with various fluorescent substrates of Pgp1 in the presence (bottom panel) and absence (top panel) of NSC23925. For visualization of effects of NSC23925 on the intracellular retention of rhodamine 123, mitoxantrone, Dioc2, doxorobucin, and calcein AM, 10,000 resistant cells were seeded on to Lab-Tek 8-well chamber slides on the day prior to the assay. SKOV-3TR cells were then incubated with either 1 μM rhodamine 123, 10 μM mitoxantrone, 0.1 μM Dioc2, 10 μM doxorubicin or 0.25 μM calcein AM either alone or in the presence of NSC23925 in RPMI 1640 media for one hour at 37° C. Image were acquired a Nikon Eclipse Ti-U fluorescence microscope (Nikon Corp.) equipped with a SPOT RT digital camera (Diagnostic Instruments, Inc., Sterling Heights, Mich.).
For visualization of the effects of NSC23925 on the intracellular retention of calcein AM, doxorubicin, and mitoxantrone, 10,000 resistant cells were seeded on to Lab-Tek 8-well chamber slides on the day prior to the assay. […] Images were acquired by Nikon Eclipse Ti-U fluorescence microscope (Nikon Corp.) equipped with a SPOT RT digital camera (Diagnostic Instruments, Inc., Sterling Heights, Mich.).

OVCAR8TR cells = assay: Reversal of drug resistance, cytotoxicity (MTT) assay in OVCAR8TR; format: cell-based, human; conditions: for IC50: Homo sapiens

T1 sequence (P08183 whole entry): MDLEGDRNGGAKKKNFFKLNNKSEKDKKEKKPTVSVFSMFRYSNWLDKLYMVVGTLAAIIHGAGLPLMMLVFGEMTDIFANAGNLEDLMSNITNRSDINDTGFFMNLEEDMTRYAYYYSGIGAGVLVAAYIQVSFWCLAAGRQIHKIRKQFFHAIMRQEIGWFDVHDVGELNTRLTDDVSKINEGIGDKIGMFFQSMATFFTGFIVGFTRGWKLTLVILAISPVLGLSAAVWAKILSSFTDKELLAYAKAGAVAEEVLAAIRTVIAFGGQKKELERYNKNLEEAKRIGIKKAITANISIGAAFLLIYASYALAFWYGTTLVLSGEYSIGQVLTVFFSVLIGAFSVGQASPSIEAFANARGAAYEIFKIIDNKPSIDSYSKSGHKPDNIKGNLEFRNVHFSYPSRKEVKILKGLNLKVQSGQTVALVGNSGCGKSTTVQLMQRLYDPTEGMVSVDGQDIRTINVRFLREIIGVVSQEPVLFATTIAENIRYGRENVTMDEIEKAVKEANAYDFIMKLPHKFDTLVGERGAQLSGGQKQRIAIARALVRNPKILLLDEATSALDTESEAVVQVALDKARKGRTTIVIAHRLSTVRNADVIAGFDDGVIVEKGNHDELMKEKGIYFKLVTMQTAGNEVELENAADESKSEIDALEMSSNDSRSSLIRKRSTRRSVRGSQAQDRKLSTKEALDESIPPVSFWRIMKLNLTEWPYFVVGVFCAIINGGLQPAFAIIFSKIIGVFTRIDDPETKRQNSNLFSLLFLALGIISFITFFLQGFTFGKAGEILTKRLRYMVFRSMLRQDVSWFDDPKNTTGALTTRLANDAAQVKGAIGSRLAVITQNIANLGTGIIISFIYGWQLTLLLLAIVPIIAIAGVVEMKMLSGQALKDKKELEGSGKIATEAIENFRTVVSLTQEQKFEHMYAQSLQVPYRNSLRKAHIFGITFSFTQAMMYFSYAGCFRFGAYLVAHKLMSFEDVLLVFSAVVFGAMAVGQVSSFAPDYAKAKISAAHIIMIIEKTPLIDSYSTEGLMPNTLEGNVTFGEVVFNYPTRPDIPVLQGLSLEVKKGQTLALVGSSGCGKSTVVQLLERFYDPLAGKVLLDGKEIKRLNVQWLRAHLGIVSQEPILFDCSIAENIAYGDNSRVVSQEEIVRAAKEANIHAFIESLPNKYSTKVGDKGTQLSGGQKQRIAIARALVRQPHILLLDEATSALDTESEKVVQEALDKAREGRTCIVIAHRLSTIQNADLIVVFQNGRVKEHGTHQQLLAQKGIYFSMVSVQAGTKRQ

## COc1ccc(-c2cc(C(O)C3CCCCN3)c3ccccc3n2)cc1 (stereo not shown) [NSC23925, (2-(4-methoxyphenyl)quinolin-4-yl)(piperidin-2-yl)methanol]
[1]
  Reversal of drug resistance in MCF-7 MX cells: unable to reverse drug resistance
[2]; <5-10 μM NSC23925 alone, cells lack Pgp1
  Cytotoxic effect of NSC23925 alone in parental OVCAR8: no cytotoxic effect
[2]; Homo sapiens, OVCAR-8, OVCAR8/OVCAR8TR, single agent, read-out: IC50 for NSC23925 (proliferation)
  IC50: 25000 nM
[3]
  Potency compared with verapamil and CsA (calcein AM accumulation): significantly greater
[3]; SKOV-3TR and OVCAR8TR
  Half-maximal reversal of calcein AM accumulation deficit: 100 nM
  Lowest concentration with prominent effect on accumulation of calcein AM: 1 nM
  Near maximal reversal of calcein AM accumulation deficit: 500 nM
[4]; 1 μM NSC23925, one hour at 37° C.
  Fluorescence of SKOV-3TR cells incubated with fluorescent Pgp substrates: highly fluorescent
[4]; fluorescence
  Efflux of Pgp1 substrates Rhodamine 123, mitoxantrone, dioc 2 and doxorubicin from SKOV-3TR: inhibited the efflux
OVCAR8TR cells; Doxorubicin, add NSC23925 0.1 μM
  fold-reversal of drug resistance, OVCAR8TR: (2.3) fold
OVCAR8TR cells; Doxorubicin, add NSC23925 0.5 μM
  fold-reversal of drug resistance, OVCAR8TR: (5.3) fold
OVCAR8TR cells; Doxorubicin, add NSC23925 1 μM
  fold-reversal of drug resistance, OVCAR8TR: (23) fold
OVCAR8TR cells; ET-743, add NSC23925 0.1 μM
  fold-reversal of drug resistance, OVCAR8TR: (1.2) fold
OVCAR8TR cells; ET-743, add NSC23925 0.5 μM
  fold-reversal of drug resistance, OVCAR8TR: (1.2) fold
OVCAR8TR cells; ET-743, add NSC23925 1 μM
  fold-reversal of drug resistance, OVCAR8TR: (0.9) fold
OVCAR8TR cells; Doxorubicin, add NSC23925 0.1 μM, read-out: OVCAR8TR IC50 of Doxorubicin
  IC50: 12400 ± 360 nM
OVCAR8TR cells; Doxorubicin, add NSC23925 0.5 μM, read-out: OVCAR8TR IC50 of Doxorubicin
  IC50: 5200 ± 471 nM
OVCAR8TR cells; Doxorubicin, add NSC23925 1 μM, read-out: OVCAR8TR IC50 of Doxorubicin
  IC50: 1220 ± 122 nM
OVCAR8TR cells; ET-743, add NSC23925 0.1 μM, read-out: OVCAR8TR IC50 of ET-743
  IC50: 5 ± 1 nM
OVCAR8TR cells; ET-743, add NSC23925 0.5 μM, read-out: OVCAR8TR IC50 of ET-743
  IC50: 5 ± 1 nM
OVCAR8TR cells; ET-743, add NSC23925 1 μM, read-out: OVCAR8TR IC50 of ET-743
  IC50: 7 ± 2 nM
OVCAR8TR cells; PM00104, add NSC23925 0.1 μM, read-out: OVCAR8TR IC50 of PM00104
  IC50: 8 ± 2 nM
OVCAR8TR cells; PM00104, add NSC23925 0.5 μM, read-out: OVCAR8TR IC50 of PM00104
  IC50: 6 ± 2 nM
OVCAR8TR cells; PM00104, add NSC23925 1 μM, read-out: OVCAR8TR IC50 of PM00104
  IC50: 5 ± 2 nM
OVCAR8TR cells; Paclitaxel, add NSC23925 0.5 μM, read-out: OVCAR8TR IC50 of Paclitaxel
  IC50: 72 ± 46 nM
OVCAR8TR cells; Paclitaxel, add NSC23925 1 μM, read-out: OVCAR8TR IC50 of Paclitaxel
  IC50: 28 ± 47 nM
OVCAR8TR cells; PM00104, add NSC23925 0.1 μM
  fold-reversal of drug resistance, OVCAR8TR: (1) fold
OVCAR8TR cells; PM00104, add NSC23925 0.5 μM
  fold-reversal of drug resistance, OVCAR8TR: (1.3) fold
OVCAR8TR cells; PM00104, add NSC23925 1 μM
  fold-reversal of drug resistance, OVCAR8TR: (1.6) fold
OVCAR8TR cells; Paclitaxel, add NSC23925 0.1 μM
  fold-reversal of drug resistance, OVCAR8TR: (2.7) fold
OVCAR8TR cells; Paclitaxel, add NSC23925 1 μM
  fold-reversal of drug resistance, OVCAR8TR: (12.1) fold

Reference: patent US8802702B2, “Compounds for reducing drug resistance and uses thereof” (The General Hospital Corporation, priority 2009, dated 2014)
